Data published in US20140179664A1, “Heterocyclyl Pyrimidine Analogues As JAK Inhibitors” (Cellzome Limited, priority 2011, published 2014).

target: T1, JAK3 (Homo sapiens, UniProt P52333); assay: Kinobeads assay, JAK3; type: binding; settings: mixed Molt4/Ramos lysate, read-out: Inhibition values (IC50) JAK3
T1 construct: endogenous in cells; host or cells: Molt4 (ATCC CRL-1582) and Ramos (ATCC CRL-1596), mixed lysate 1:2
T1 sequence (P52333 1-1124): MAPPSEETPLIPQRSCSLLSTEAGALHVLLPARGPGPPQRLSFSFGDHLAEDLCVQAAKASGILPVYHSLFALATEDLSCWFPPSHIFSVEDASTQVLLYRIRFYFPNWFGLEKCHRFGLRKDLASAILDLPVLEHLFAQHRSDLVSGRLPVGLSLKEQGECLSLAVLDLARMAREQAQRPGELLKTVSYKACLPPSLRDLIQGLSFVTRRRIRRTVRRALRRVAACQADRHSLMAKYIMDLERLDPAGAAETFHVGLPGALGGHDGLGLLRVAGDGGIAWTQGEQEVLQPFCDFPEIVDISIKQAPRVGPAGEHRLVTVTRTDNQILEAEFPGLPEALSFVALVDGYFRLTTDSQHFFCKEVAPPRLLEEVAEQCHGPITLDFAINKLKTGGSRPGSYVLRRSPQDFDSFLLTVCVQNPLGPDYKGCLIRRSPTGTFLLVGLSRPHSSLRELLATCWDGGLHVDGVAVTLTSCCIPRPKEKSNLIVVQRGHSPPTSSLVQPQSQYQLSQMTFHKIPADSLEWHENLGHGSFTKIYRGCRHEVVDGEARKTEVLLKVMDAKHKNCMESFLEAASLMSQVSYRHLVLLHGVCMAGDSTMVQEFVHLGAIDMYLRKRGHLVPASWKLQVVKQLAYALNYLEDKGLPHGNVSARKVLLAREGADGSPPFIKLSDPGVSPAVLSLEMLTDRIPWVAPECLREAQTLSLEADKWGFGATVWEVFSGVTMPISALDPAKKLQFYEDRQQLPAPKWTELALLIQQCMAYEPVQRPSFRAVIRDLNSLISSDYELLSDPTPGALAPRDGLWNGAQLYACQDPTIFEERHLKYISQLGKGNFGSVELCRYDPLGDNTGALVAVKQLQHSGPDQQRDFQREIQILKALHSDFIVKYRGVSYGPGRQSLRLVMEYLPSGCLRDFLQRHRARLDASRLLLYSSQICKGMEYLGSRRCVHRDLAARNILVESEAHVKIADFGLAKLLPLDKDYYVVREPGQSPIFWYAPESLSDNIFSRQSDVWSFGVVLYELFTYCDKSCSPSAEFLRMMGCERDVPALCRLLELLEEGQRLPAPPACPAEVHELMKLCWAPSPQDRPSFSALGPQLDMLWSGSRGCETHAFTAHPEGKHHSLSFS
How it was run: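 IC50s come from capture competition: compound at various concentrations versus an immobilized aminopyrido-pyrimidine ligand for kinases in 1:2 Molt4/Ramos lysate (10 mg/mL), 3 h in a cold room. Captured JAK-family kinases were measured by specific-antibody dot blot with Odyssey infrared detection.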

IC50 [nM]	SMILES
< 100	CC(C)NC(=O)Cn1cc(Nc2ncc(Cl)c(N[C@H](CO)c3ccccc3)n2)cn1 [Compound 67]
< 100	COc1cccc([C@@H](CO)Nc2nc(Nc3cnn(CC(N)=O)c3)ncc2Cl)c1 [Compound 84]
< 100	COc1cccc([C@@H](CO)Nc2nc(Nc3cnn(C)c3)ncc2Cl)c1 [Compound 82]
< 100	O=C(NCCO)[C@@H](Nc1nc(Nc2cnn(CCO)c2)ncc1Cl)c1ccccc1 [Compound 47]
< 100	NC(=O)Cn1cc(Nc2ncc(Cl)c(N[C@H](CO)c3ccccc3)n2)cn1 [Compound 56]
< 100	CC(C)(C(N)=O)n1cc(Nc2ncc(Cl)c(N[C@H](CO)c3ccccc3F)n2)cn1 [Compound 73]
< 100	COCCNC(=O)[C@@H](Nc1nc(Nc2cnn(C)c2)ncc1Cl)c1ccccc1 [Compound 29]
< 100	CN(C)C(=O)[C@@H](Nc1nc(Nc2cnn(CCO)c2)ncc1Cl)c1ccccc1 [Compound 26]
< 100	CN(CC#N)C(=O)Cn1cc(Nc2ncc(Cl)c(N[C@H](CO)c3ccccc3)n2)cn1 [Compound 70]
< 100	CN(C)C(=O)Cn1cc(Nc2ncc(Cl)c(N[C@H](CO)c3ccccc3)n2)cn1 [Compound 30]
< 100	CNC(=O)Cn1cc(Nc2ncc(Cl)c(NC(CO)c3ccccc3F)n2)cn1 (stereo not drawn) [Compound 33]
100 to 1000	Cn1cc(Nc2ncc(Cl)c(NC(CO)c3cccc(Br)c3)n2)cn1 (stereo not drawn) [Compound 52]
100 to 1000	COC(=O)C(Nc1nc(Nc2cnn(C)c2)ncc1Cl)c1ccccc1 (stereo not drawn) [Compound 16]
< 100	CC(O)Cn1cc(Nc2ncc(Cl)c(NC(CO)c3c(F)cccc3F)n2)cn1 (stereo not drawn) [Compound 42]
< 100	NC(=O)Cn1cc(Nc2ncc(Cl)c(N[C@H](CO)c3ccccc3F)n2)cn1 [Compound 78]
100 to 1000	OCCn1ccc(Nc2ncc(Cl)c(NC(CO)c3c(F)cccc3F)n2)n1 (stereo not drawn) [Compound 45]
< 100	CC(C)(O)Cn1cc(Nc2ncc(Cl)c(NC(CO)c3ccccc3F)n2)cn1 (stereo not drawn) [Compound 57]
< 100	CC(C)(O)Cn1cc(Nc2ncc(Cl)c(NC(CO)c3cccc(F)c3)n2)cn1 (stereo not drawn) [Compound 61]
100 to 1000	Cc1cnc(Nc2cnn(CCO)c2)nc1NC(CO)c1ccccc1 (stereo not drawn) [Compound 12]
< 100	COCCNC(=O)[C@@H](Nc1nc(Nc2cnn(CCO)c2)ncc1Cl)c1ccccc1 [Compound 48]
< 100	COc1cccc([C@@H](CO)Nc2nc(Nc3cnn(CCO)c3)ncc2Cl)c1 [Compound 83]
100 to 1000	Cc1cnc(Nc2cnn(CC(F)F)c2)nc1N[C@H](CO)c1cc(F)cc(F)c1 [Compound 167]
< 100	OCCn1cc(Nc2ncc(Cl)c(NC(CO)c3ccccc3F)n2)cn1 (stereo not drawn) [Compound 36]

IC50 [nM]	SMILES
100 to 1000	Cn1cc(Nc2ncc(Cl)c(N[C@H](C(=O)N3CCCC3)c3ccccc3)n2)cn1 [Compound 34]
< 100	CCOC(=O)Cn1cc(Nc2ncc(Cl)c(N[C@H](CO)c3ccccc3)n2)cn1 [Compound 22]
100 to 1000	O=C(NC1CCCC1)[C@@H](Nc1nc(Nc2cnn(CCO)c2)ncc1Cl)c1ccccc1 [Compound 60]
< 100	Cn1cc(Nc2ncc(Cl)c(N[C@H](C(=O)NCCO)c3ccccc3)n2)cn1 [Compound 46]
100 to 1000	OCCn1cc(Nc2ncc(Cl)c(NC(CO)c3ccc(F)cc3)n2)cn1 (stereo not drawn) [Compound 72]
100 to 1000	OCCn1ccc(Nc2ncc(Cl)c(NC(CO)c3cccc(F)c3)n2)n1 (stereo not drawn) [Compound 41]
100 to 1000	Cn1cc(Nc2ncc(F)c(NC(CO)c3ccccc3)n2)cn1 (stereo not drawn) [Compound 2]
100 to 1000	Cn1cc(Nc2ncc(Cl)c(NC(CO)c3cccc(-c4cnn(C)c4)c3)n2)cn1 (stereo not drawn) [Compound 69]
100 to 1000	Cn1cc(Nc2ncc(Cl)c(N[C@H](C(=O)NC3CCCC3)c3ccccc3)n2)cn1 [Compound 59]
100 to 1000	Cn1cc(Nc2ncc(Cl)c(N[C@H](C(=O)N3CCCCC3)c3ccccc3)n2)cn1 [Compound 49]
< 100	CNC(=O)Cn1cc(Nc2ncc(Cl)c(NC(CO)c3c(F)cccc3F)n2)cn1 (stereo not drawn) [Compound 31]
< 100	Cn1cc(Nc2ncc(Cl)c(NC(C(=O)O)c3ccccc3)n2)cn1 (stereo not drawn) [Compound 18]
< 100	O=C(Cn1cc(Nc2ncc(Cl)c(N[C@H](CO)c3ccccc3)n2)cn1)NC1CC1 [Compound 68]
< 100	OCCn1cc(Nc2ncc(Cl)c(NC(CO)c3c(F)cccc3F)n2)cn1 (stereo not drawn) [Compound 43]
100 to 1000	OCC[C@@H](Nc1nc(Nc2cnn(CCO)c2)ncc1Cl)c1ccccc1 [Compound 65]
100 to 1000	Cn1cc(Nc2ncc(Cl)c(NC(CO)c3ccc(F)cc3)n2)cn1 (stereo not drawn) [Compound 71]
100 to 1000	Cn1cc(Nc2ncc(Cl)c(NC(CO)c3cccc(N4CC5(COC5)C4)c3)n2)cn1 (stereo not drawn) [Compound 53]
< 100	Cn1cc(Nc2ncc(Cl)c(NC(CO)c3cccc(F)c3)n2)cn1 (stereo not drawn) [Compound 40]
100 to 1000	CN(C)C(=O)[C@@H](Nc1nc(Nc2cnn(C)c2)ncc1Cl)c1ccccc1 [Compound 25]
< 100	CNC(=O)Cn1cc(Nc2ncc(Cl)c(N[C@H](CO)c3ccccc3)n2)cn1 [Compound 23, (S)-2-(4-((5-chloro-4-((2-hydroxy-1-phenylethyl)amino)pyrimidin-2-yl)amino)-1H-pyrazol-1-yl)-N-methylacetamide]
< 100	CC(O)Cn1cc(Nc2ncc(Cl)c(NC(CO)c3cccc(F)c3)n2)cn1 (stereo not drawn) [Compound 38]
< 100	OCCn1cc(Nc2ncc(Cl)c(N[C@H](CO)c3ccccn3)n2)cn1 [Compound 80]
100 to 1000	Cn1ccc(Nc2ncc(Cl)c(N[C@H](CO)c3ccccc3)n2)n1 [Compound 11]

IC50 [nM]	SMILES
< 100	O=C(c1cc(Nc2ncc(Cl)c(N[C@H](CO)c3ccccc3)n2)c[nH]1)N1CCOCC1 [Compound 13]
< 100	CNC(=O)Cn1cc(Nc2ncc(Cl)c(NC(CO)c3cccc(F)c3)n2)cn1 (stereo not drawn) [Compound 32]
< 100	CC(C)OC(=O)Cn1cc(Nc2ncc(Cl)c(N[C@H](CO)c3ccccc3)n2)cn1 [Compound 21]
< 100	COc1ccccc1[C@@H](CO)Nc1nc(Nc2cnn(CCO)c2)ncc1Cl [Compound 76]
< 100	CCNC(=O)[C@@H](Nc1nc(Nc2cnn(C)c2)ncc1Cl)c1ccccc1 [Compound 28]
< 100	CC(C)(O)Cn1cc(Nc2ncc(Cl)c(NC(CO)c3c(F)cccc3F)n2)cn1 (stereo not drawn) [Compound 62]
< 100	Cn1cc(Nc2ncc(Cl)c(NC(CO)c3ccccc3)n2)cn1 (stereo not drawn) [Compound 1]
100 to 1000	Cc1cnc(Nc2cnn(CC(F)F)c2)nc1NC(CO)c1c(F)cccc1F (stereo not drawn) [Compound 168]
< 100	OC[C@@H](Nc1nc(Nc2cn[nH]c2)ncc1Cl)c1ccccc1 [Compound 75]
< 100	OCCn1cc(Nc2ncc(Cl)c(NC(CO)c3cccc(F)c3)n2)cn1 (stereo not drawn) [Compound 39]
< 100	Cc1cnc(Nc2cnn(CC(=O)N3CCOCC3)c2)nc1NC(CO)c1c(F)cccc1F (stereo not drawn) [Compound 169]
1000 to 10000	OCCn1cc(Nc2ncc(Cl)c(N[C@@H](CO)c3ccccc3)n2)cn1 [Compound 63]
< 100	CCNC(=O)[C@@H](Nc1nc(Nc2cnn(CCO)c2)ncc1Cl)c1ccccc1 [Compound 27]
< 100	Cn1cc(Nc2ncc(Cl)c(NC(CO)c3ccccc3F)n2)cn1 (stereo not drawn) [Compound 37]
1000 to 10000	Cn1cc(Nc2ncc(Cl)c(N[C@@H](CO)c3ccccc3)n2)cn1 [Compound 54]
< 100	OC[C@@H](Nc1nc(Nc2cn[nH]c2)ncc1Cl)c1ccccc1F [Compound 79]
< 100	OCCn1cc(Nc2ncc(Cl)c(NC(CO)Cc3ccccc3)n2)cn1 (stereo not drawn) [Compound 19]
< 100	Cn1cc(Nc2ncc(Cl)c(N[C@H](CO)c3ccccc3F)n2)cn1 [Compound 58]
100 to 1000	COC(=O)C(Nc1nc(Nc2cnn(CCO)c2)ncc1Cl)c1ccccc1 (stereo not drawn) [Compound 15]
< 100	O=C(O)Cn1cc(Nc2ncc(Cl)c(N[C@H](CO)c3ccccc3)n2)cn1 [Compound 24]
< 100	CNC(=O)Cn1cc(Nc2ncc(Cl)c(N[C@H](CO)c3cccnc3)n2)cn1 [Compound 170]
< 100	OCCn1cc(Nc2ncc(Cl)c(N[C@H](CO)c3ccccc3F)n2)cn1 [Compound 77]
100 to 1000	O=C(O)C(Nc1nc(Nc2cnn(CCO)c2)ncc1Cl)c1ccccc1 (stereo not drawn) [Compound 17]
